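Interpolation was linear, between the two tested concentrations surrounding the appropriate level; five concentrations were tested over 48 hours in 96-well plates. Here, GI50 denotes the concentration required for 50% inhibition of growth.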 The source made the active and inactive calls. Cut-off read from the data, not from the text of the source: active = GI50 up to about 1.1 µM and inactive = higher.
How the values were obtained:
Assay in all cases: growth of human tumour cells (NCI), 48 h
NCI-H522 = tested on: NCI-H522
HCT-15 = tested on: HCT-15
HOP-92 = tested on: HOP-92
MDA-MB-231 = tested on: MDA-MB-231
SK-MEL-2 = tested on: SK-MEL-2
TK-10 = tested on: TK-10
SK-OV-3 = tested on: SK-OV-3
CCRF-CEM = tested on: CCRF-CEM
M14 = tested on: M14
MDA-N = tested on: MDA-N
HL-60 = tested on: HL-60
PC-3 = tested on: PC-3
T47D = tested on: T47D
A549 = tested on: A549
RXF 393 = tested on: RXF 393
NCI/ADR-RES = tested on: NCI/ADR-RES
HCT-116 = tested on: HCT-116
CAKI-1 = tested on: CAKI-1
NCI-H460 = tested on: NCI-H460
HCC 2998 = tested on: HCC 2998
NCI-H23 = tested on: NCI-H23
Malme-3M = tested on: Malme-3M
SR = tested on: SR
HOP-62 = tested on: HOP-62
SF-295 = tested on: SF-295
UACC-257 = tested on: UACC-257
K562 = tested on: K562
IGROV-1 = tested on: IGROV-1
A498 = tested on: A498
U-251 = tested on: U-251
DU-145 = tested on: DU-145
OVCAR-8 = tested on: OVCAR-8
SF-268 = tested on: SF-268
MCF7 = tested on: MCF7
SK-MEL-5 = tested on: SK-MEL-5
OVCAR-4 = tested on: OVCAR-4
HT-29 = tested on: HT-29
RPMI-8226 = tested on: RPMI-8226
Hs-578T = tested on: Hs-578T
LOX IMVI = tested on: LOX IMVI
ACHN = tested on: ACHN
MDA-MB-435 = tested on: MDA-MB-435
MOLT-4 = tested on: MOLT-4
OVCAR-3 = tested on: OVCAR-3
786-0 = tested on: 786-0
SK-MEL-28 = tested on: SK-MEL-28
SF-539 = tested on: SF-539
EKVX = tested on: EKVX
SW-620 = tested on: SW-620
OVCAR-5 = tested on: OVCAR-5
UO-31 = tested on: UO-31
SNB-19 = tested on: SNB-19
NCI-H226 = tested on: NCI-H226
COLO 205 = tested on: COLO 205
KM12 = tested on: KM12
SNB-75 = tested on: SNB-75
SN12C = tested on: SN12C

Measured: GI50

O=c1oc2cccnc2n1CCCCN1CCN(c2ccccc2)CC1
> 100 µM: HCT-15
inactive: NCI-H522 > 100 µM | HOP-92 > 100 µM | MDA-MB-231 > 100 µM | SK-MEL-2 > 100 µM | TK-10 > 100 µM | SK-OV-3 > 100 µM | CCRF-CEM > 100 µM | M14 > 100 µM | MDA-N > 100 µM | HL-60 > 100 µM | PC-3 > 100 µM | T47D > 100 µM | A549 > 100 µM | RXF 393 > 100 µM | NCI/ADR-RES > 100 µM | HCT-116 > 100 µM | CAKI-1 > 100 µM | NCI-H460 > 100 µM | HCC 2998 > 100 µM | NCI-H23 > 100 µM | Malme-3M 89.1 µM | SR > 100 µM | HOP-62 > 100 µM | SF-295 > 100 µM | UACC-257 > 100 µM | K562 > 100 µM | IGROV-1 > 100 µM | A498 > 100 µM | U-251 > 100 µM | DU-145 > 100 µM | OVCAR-8 > 100 µM | SF-268 > 100 µM | MCF7 > 100 µM | SK-MEL-5 > 100 µM | OVCAR-4 > 100 µM | HT-29 > 100 µM | RPMI-8226 > 100 µM | Hs-578T > 100 µM | LOX IMVI > 100 µM | ACHN > 100 µM | MDA-MB-435 > 100 µM | MOLT-4 > 100 µM | OVCAR-3 > 100 µM | 786-0 > 100 µM | SK-MEL-28 > 100 µM | SF-539 > 100 µM | EKVX > 100 µM | SW-620 > 100 µM | OVCAR-5 > 100 µM | UO-31 > 100 µM | SNB-19 > 100 µM

CC(C)(C)C(=O)C(C(=O)C(C)(C)C)C(=O)C(C)(C)C
> 100 µM: HCT-15
inactive: NCI-H522 > 100 µM | HOP-92 > 100 µM | MDA-MB-231 > 100 µM | SK-MEL-2 > 100 µM | TK-10 > 100 µM | NCI-H226 > 100 µM | COLO 205 > 100 µM | SK-OV-3 43.5 µM | CCRF-CEM > 100 µM | M14 > 100 µM | MDA-N > 100 µM | KM12 > 100 µM | HL-60 > 100 µM | PC-3 > 100 µM | T47D > 100 µM | A549 > 100 µM | RXF 393 > 100 µM | NCI/ADR-RES > 100 µM | HCT-116 > 100 µM | CAKI-1 > 100 µM | NCI-H460 > 100 µM | HCC 2998 > 100 µM | NCI-H23 > 100 µM | Malme-3M > 100 µM | SR > 100 µM | HOP-62 > 100 µM | SF-295 > 100 µM | UACC-257 > 100 µM | K562 > 100 µM | IGROV-1 > 100 µM | A498 > 100 µM | U-251 > 100 µM | DU-145 > 100 µM | OVCAR-8 > 100 µM | SF-268 > 100 µM | MCF7 > 100 µM | SK-MEL-5 > 100 µM | OVCAR-4 > 100 µM | HT-29 > 100 µM | RPMI-8226 > 100 µM | Hs-578T > 100 µM | LOX IMVI > 100 µM | SNB-75 71 µM | ACHN > 100 µM | MDA-MB-435 > 100 µM | MOLT-4 > 100 µM | OVCAR-3 > 100 µM | 786-0 > 100 µM | SK-MEL-28 > 100 µM | SF-539 > 100 µM | EKVX > 100 µM | SW-620 > 100 µM | OVCAR-5 > 100 µM | SN12C > 100 µM | UO-31 > 100 µM | SNB-19 > 100 µM

From ChEMBL document CHEMBL1201862, “PubChem BioAssay data set” (2004)
